From patent US10799499B2, “Combinatorial therapies of neurological disorders” (PHARNEXT, priority 2016, dated 2020)

Experiments:
[1] = tested on: primary cortical neuron cells; experiment: Toxicity of human Aβ1-42 peptide on primary cortical neuron cells (MAP2 antibody labelling); format: cell-based, rat; conditions: combinations versus drugs used alone at the same doses
Method: Effect on the Toxicity of Human Aβ1-42 Peptide on Primary Cortical Neuron Cells.
Culture of Primary Cortical Neurons
Rat cortical neurons are cultured as described by Singer et al.. Briefly pregnant female rats of 15 days gestation were killed by cervical dislocation (Rats Wistar) and the foetuses were removed from the uterus. The cortex was removed and placed in ice-cold medium of Leibovitz (L15) containing 2% of Penicillin 10.000 U/ml and Streptomycin 10 mg/ml and 1% of bovine serum albumin (BSA). Cortices were dissociated by trypsin for 20 min at 37° C. (0.05%). The reaction was stopped by the addition of Dulbecco's modified Eagle's medium (DMEM) containing DNase 1 grade II and 10% of fetal calf serum (FCS). Cells were then mechanically dissociated by 3 serial passages through a 10 ml pipette and centrifuged at 515×g for […] at +4° C. The supernatant was discarded and the pellet of cells was re-suspended in a defined culture medium consisting of Neurobasal supplemented with B27 (2%), L-glutamine (0.2 mM), 2% of PS solution and 10 ng/ml of BDNF. Viable cells are counted in a Neubauer cytometer using the trypan blue exclusion test. The cells are seeded at a density of 30 000 cells/well in 96 well-plates (wells were pre-coated with poly-L-lysine (10 μg/ml)) and are cultured at +37° C. in a humidified air (95%)/CO2 (5%) atmosphere.
Three independent cultures are performed per condition, 6 wells per condition.
Test compounds and Human Amyloid-β1-42 Treatment
Briefly, Aβ1-42 peptide is reconstituted in define culture medium at 40 μM (mother solution) and was slowly shaken at +37° C. for 3 days in dark. The control medium is prepared in the same conditions.
After 3 days, the solution is used on primary cortical neurons as follows.
After 10 days of neuron culture, test compounds and combinations thereof are solved in culture medium (+0.1% DMSO) and then pre-incubated with neurons for one hour before the Aβ1_42 application (in a final volume per culture well of 100 μl). One hour after test compound(s) incubation, 100 μl of Aβ1-42 peptide is added to a final concentration of 10 μM diluted in presence of drug(s), in order to avoid further test compound(s) dilutions. Cortical neurons are intoxicated for 24 h. Three separate cultures are performed per condition, 6 wells per condition.
BDNF (50 ng/ml) is used as positive control. Three separate cultures are performed per condition, 12 wells per condition.
MAP2 Antibody Labelling Assay
24 hours after intoxication, the cell culture supernatant is taken off and the cortical neurons are fixed by a cold solution of ethanol (95%) and acetic acid (5%) for 5 min at −20° C. After permeabilization with 0.1% of saponin, cells are incubated for 2 h with mouse monoclonal antibody anti microtubule-associated-protein 2 (MAP-2; Sigma) at dilution of 1/400 in PBS containing 1% fetal calf serum and 0.1% of saponin (this antibody stains specifically cell bodies and neurites, allowing study of both the neurite network and cell death). […] For each condition, 30 pictures per well are taken using InCell Analyzer™ 1000 (GE Healthcare) with 20× magnification. All images are taken with the same conditions. Analysis of total neurite network and number of neurons is performed automatically by using Developer software (GE Healthcare).
Data are expressed in percentage of control conditions (no intoxication, no amyloid=100%) in order to express the amyloid injury. All values are expressed as mean+/−SEM (s.e.mean) of the 3 cultures (n=6 wells per condition). Statistical analyses are done on the different conditions (one-way ANOVA followed by the Dunnett's test when it is allowed, Statview software version 5.0).

Male Swiss mice [2] = experiment: Spontaneous alternation in the Y-maze (spatial working memory) in mice injected ICV with Aβ25-35; format: in vivo, mouse; conditions: oral gavage Day 0 to Day 10, quinoline 1 mg/Kg once a day, baclofen 480 μg/Kg and acamprosate 32 μg/Kg twice a day, test at Day 8
Method: (§1) The peptide amyloid-β25-35 (Aβ25-35) is the hydrophobic part of the full-length amyloid peptide. Injection of this peptide in the brain ventricles of rodents is known to induce a progressive neurodegenerative processes resulting in cognitive impairments. This model is commonly used for diseases involving cognitive impairment symptoms.
(§2) Male Swiss mice were administered from Day 0 to Day 10 with sham product (group 1 and 2); 3-phenylsulfonyl-8-(piperazin-1-yl) quinoline (group 3); baclofen and acamprosate (group 4); or 3-phenylsulfonyl-8-(piperazin-1-yl) quinoline, baclofen and acamprosate (group 5).
(§3) 3-phenylsulfonyl-8-(piperazin-1-yl) quinoline) was administered orally by gavage once a day (1 mg/Kg of the individual body weight of each mouse.
(§4) A composition of baclofen and acamprosate was administered orally by gavage twice a day (respectively 480 μg/Kg and 32 μg/Kg of the individual body weight of each mouse).
(§5) At Day 1, oligomeric Aβ25-35 peptide was injected ICV (intracerebroventricular) to provoke amyloid toxicity (group 2, 3, 4 and 5). […]
Animals were tested for spontaneous alternation performance in the Y-maze, an index of spatial working memory. […] The number of maximum alternations was therefore the total number of arm entries minus two and the percentage of alternation was calculated as (actual alternations/maximum alternations)×100. […]

Male Swiss mice [3] = experiment: Step-through passive avoidance test (contextual long-term memory) in mice injected ICV with Aβ25-35; format: in vivo, mouse; conditions: oral gavage Day 0 to Day 10, quinoline 1 mg/Kg once a day, baclofen 480 μg/Kg and acamprosate 32 μg/Kg twice a day, retention at Day 10
Method: as §1, §2, §3, §4, §5
All animals were tested for passive avoidance performance, an index of contextual long-term memory. […] The step-through latency, that is, the latency spent to enter the darkened compartment, and the number of vocalizations were recorded. […] The step-through latency was recorded up to 300 s.

Structure (SMILES)	protective effect on neuronal cells against Aβ1-42 toxicity [1]	effect on the impairment of cognitive function induced by Aβ(25-35), Y-maze (Male Swiss mice [2])	effect on the impairment of cognitive function induced by Aβ(25-35), step-through passive avoidance (Male Swiss mice [3])
CC(=O)NCCCS(=O)(=O)O [acamprosate]	no or a marginal protective effect	–	–
O=S(=O)(c1ccccc1)c1cnc2c(N3CCNCC3)cccc2c1 [3-phenylsulfonyl-8-(piperazin-1-yl) quinoline]	no or a marginal protective effect	did not show any significant effect	did not show any significant effect
CC12CC3CC(C)(C1)CC(N)(C3)C2 [memantine]	no or a marginal protective effect	–	–
CCN(C)C(=O)Oc1cccc([C@H](C)N(C)C)c1 [rivastigmine]	no or a marginal protective effect	–	–
NCC(CC(=O)O)c1ccc(Cl)cc1 (centres unmarked) [baclofen]	no or a marginal protective effect	–	–
Nc1c2c(nc3ccccc13)CCCC2 [tacrine]	no or a marginal protective effect	–	–
